Active and inactive are the calls of the source. The rule behind the calls is not given here.
Experiments:
[1] = tested on: Human immunodeficiency virus 1; experiment: Antiviral activity against HIV1 3B infected human TZM-bl cells assessed as inhibition of viral replication at 10 uM treated immediately after infection by luciferase reporter assay; type: functional, organism-based
[2] = Selectivity index, ratio of CC50 for human TZM-bl cells to IC50 for HIV1 3B; type: functional
[3] = Selectivity index, ratio of CC50 for MDCK cells to IC50 for Influenza A virus (A/Vietnam/1194/2004(H5N1)); type: functional
[4] = tested on: Human immunodeficiency virus 1; experiment: Antiviral activity against HIV1 3B infected human TZM-bl cells assessed as inhibition of viral replication by luciferase reporter assay; type: functional, organism-based
[5] = tested on: Human immunodeficiency virus 1; experiment: Antiviral activity against HIV1 3B infected human TZM-bl cells assessed as inhibition of viral replication at 10 uM treated 2 hrs after viral infection by luciferase reporter assay; type: functional, organism-based
[6] = Cytotoxicity against MDCK cells by MTT assay; type: cell-based, Canis lupus familiaris; conditions: dog
[7] = Cytotoxicity in human TZM-bl cells by MTT assay; type: cell-based
Influenza A virus = experiment: Antiviral activity against Influenza A virus (A/Vietnam/1194/2004(H5N1)) infected in MDCK cells assessed as inhibition of viral replication by plaque reduction assay; type: functional, organism-based
Albumin = Albumin (Homo sapiens, UniProt P02768); experiment: Binding affinity to human serum albumin by fluorescence quenching assay; type: ADME; conditions: isolated protein
Sequence of Albumin (P02768 whole entry): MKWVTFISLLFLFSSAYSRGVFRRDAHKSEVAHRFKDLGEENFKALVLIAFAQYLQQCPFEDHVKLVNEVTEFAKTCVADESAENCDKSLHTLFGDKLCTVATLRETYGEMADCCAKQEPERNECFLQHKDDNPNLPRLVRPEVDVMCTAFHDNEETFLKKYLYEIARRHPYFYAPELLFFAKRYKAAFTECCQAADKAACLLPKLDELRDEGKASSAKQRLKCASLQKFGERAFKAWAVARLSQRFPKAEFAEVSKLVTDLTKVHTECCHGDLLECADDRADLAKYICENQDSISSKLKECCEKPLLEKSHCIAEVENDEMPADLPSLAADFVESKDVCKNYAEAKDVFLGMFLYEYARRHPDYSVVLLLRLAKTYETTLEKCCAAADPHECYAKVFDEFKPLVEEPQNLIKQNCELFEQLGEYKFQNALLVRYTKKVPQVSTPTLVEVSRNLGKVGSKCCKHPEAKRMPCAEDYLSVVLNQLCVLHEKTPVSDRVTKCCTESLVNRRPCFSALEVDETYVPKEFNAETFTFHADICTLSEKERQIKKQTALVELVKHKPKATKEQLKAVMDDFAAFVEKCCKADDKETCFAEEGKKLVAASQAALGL

[8] = target: Neuraminidase (Influenza A virus) (UniProt B4URF0); experiment: Inhibition of Influenza A virus neuraminidase up to 10 uM
Sequence of Neuraminidase (Influenza A virus) (B4URF0 as listed by the source): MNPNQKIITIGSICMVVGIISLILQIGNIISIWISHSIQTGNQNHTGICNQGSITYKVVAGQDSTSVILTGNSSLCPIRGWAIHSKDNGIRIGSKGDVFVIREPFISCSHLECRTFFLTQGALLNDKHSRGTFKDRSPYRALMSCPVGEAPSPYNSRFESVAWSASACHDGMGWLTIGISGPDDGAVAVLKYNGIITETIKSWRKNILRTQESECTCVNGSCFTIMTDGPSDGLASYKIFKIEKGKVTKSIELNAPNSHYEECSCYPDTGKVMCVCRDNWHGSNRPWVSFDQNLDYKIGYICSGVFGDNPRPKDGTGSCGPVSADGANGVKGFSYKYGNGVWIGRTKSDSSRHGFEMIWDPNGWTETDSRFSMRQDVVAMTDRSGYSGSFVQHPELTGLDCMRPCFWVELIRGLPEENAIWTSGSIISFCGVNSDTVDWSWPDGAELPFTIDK

[9] = target: Human immunodeficiency virus type 1 reverse transcriptase (Human immunodeficiency virus 1) (UniProt Q72547); experiment: Inhibition of HIV1 reverse transcriptase activity at 0.8 ug/ml
[10] = target: Human immunodeficiency virus type 1 reverse transcriptase (Human immunodeficiency virus 1) (UniProt Q72547); experiment: Inhibition of HIV1 reverse transcriptase activity at 20 ug/ml
[11] = target: Human immunodeficiency virus type 1 reverse transcriptase (Human immunodeficiency virus 1) (UniProt Q72547); experiment: Inhibition of HIV1 reverse transcriptase activity at 4 ug/ml
[12] = target: Human immunodeficiency virus type 1 reverse transcriptase (Human immunodeficiency virus 1) (UniProt Q72547); experiment: Inhibition of HIV1 reverse transcriptase activity
[13] = tested on: Human immunodeficiency virus 1; experiment: Antiviral activity against HIV1 3B infected human TZM-bl cells assessed as inhibition of viral replication at 10 uM treated 8 hrs after viral infection by luciferase reporter assay; type: functional, organism-based
[14] = Human immunodeficiency virus 1, 3B, TZM-bl, read-out: IC50

Compound	inhibition [1]	Ratio CC50/IC50 [2]	Ratio CC50/IC50 [3]	IC50 [4, 14] [nM]	inhibition [5]	CC50 [6] [nM]	CC50 [7] [nM]	IC50 (Influenza A virus) [nM]	Ka (Albumin)	inhibition [8]	inhibition [9]	inhibition [10] [%]	IC50 ([4]; tzm-bl)	inhibition [11] [%]	inhibition [12]	inhibition [13]
Cc1cc2c(c(O)c1-c1c(C)cc3c(c1O)/C(=C/N[C@@H](C)C(=O)[O-])C(=O)C(O)=C3C(C)C)/C(=C/N[C@@H](C)C(=O)[O-])C(=O)C(O)=C2C(C)C.[Na+].[Na+]	Active	46.09	>54.41	1220	inactive	> 47300	56200	870	1.0392 ×10⁵ L/mol	–	–	–	–	–	–	–
CC[C@H](C)[C@H](N/C=C1\C(=O)C(O)=C(C(C)C)c2cc(C)c(-c3c(C)cc4c(c3O)/C(=C/N[C@H](C(=O)[O-])[C@@H](C)CC)C(=O)C(O)=C4C(C)C)c(O)c21)C(=O)[O-].[Na+].[Na+]	Active	57.57	>124.41	1120	inactive	> 42300	64500	340	5.3223 ×10⁴ L/mol	inactive	–	–	–	–	–	–
Cc1cc2c(c(O)c1-c1c(C)cc3c(c1O)/C(=C/NC(C)(C)C(=O)[O-])C(=O)C(O)=C3C(C)C)/C(=C/NC(C)(C)C(=O)[O-])C(=O)C(O)=C2C(C)C.[Na+].[Na+]	Active	71.19	>43.37	1390	inactive	> 45500	99000	1050	1.9125 ×10⁵ L/mol	–	–	–	–	–	–	–
Cc1cc2c(c(O)c1-c1c(C)cc3c(c1O)/C(=C/N[C@@H](Cc1c[nH]c4ccccc14)C(=O)[O-])C(=O)C(O)=C3C(C)C)/C(=C/N[C@@H](Cc1c[nH]c3ccccc13)C(=O)[O-])C(=O)C(O)=C2C(C)C.[Na+].[Na+]	Active	48.43	>127.46	990	inactive	> 35700	48000	280	9.2747 ×10⁴ L/mol	inactive	–	–	–	–	–	–
enfuvirtide	Active	–	–	98.8	inactive	–	–	–	–	–	–	–	–	–	–	–
Cc1cc2c(C(C)C)c(O)c(O)c(C=O)c2c(O)c1-c1c(C)cc2c(C(C)C)c(O)c(O)c(C=O)c2c1O [GOSSYPOL]	–	–	–	–	–	3530	9760	–	2.3906 ×10⁵ L/mol	–	inactive	73.2	Not Active	76.3	Dose-dependent effect	–
Cc1cn([C@H]2C[C@H](N=[N+]=[N-])[C@@H](CO)O2)c(=O)[nH]c1=O [ZIDOVUDINE]	–	–	–	2.8	–	–	–	–	–	–	–	–	–	–	–	Active
Cc1cc2c(c(O)c1-c1c(C)cc3c(c1O)/C(=C/N[C@H](C(=O)[O-])C(C)C)C(=O)C(O)=C3C(C)C)/C(=C/N[C@H](C(=O)[O-])C(C)C)C(=O)C(O)=C2C(C)C.[Na+].[Na+]	Active	61.68	>24.64	1140	inactive	> 43900	70300	1780	2.114 ×10⁵ L/mol	–	–	–	–	–	–	–
Cc1cc2c(c(O)c1-c1c(C)cc3c(c1O)/C(=C/NC(C(=O)[O-])c1ccc(Cl)cc1)C(=O)C(O)=C3C(C)C)/C(=C/NC(C(=O)[O-])c1ccc(Cl)cc1)C(=O)C(O)=C2C(C)C.[Na+].[Na+] (configuration not stated)	–	17.12	>1.73	1280	–	> 37200	21900	21500	1.2868 ×10⁴ L/mol	–	–	–	–	–	–	–
